What was measured:
PXR (NR1I2) = PXR (NR1I2) (Homo sapiens (Human), UniProt O75469); test: Human PXR activation assay (luciferase reporter, DPX2 cells); assay type: cell-based; conditions: human; 15 uM; DPX2 cells; % Emax relative to rifampicin, adjusted for DMSO background; read-out: PXR % inh at 15 uM (adjusted)
Experimental: Luciferase Reporter Gene Assay.
A stably transformed tumor cell line (DPX2) was plated on 96-well microtiter plates. […]. The number of viable cells was determined and the reporter gene activity was assessed. […]

OCT2 = OCT2 (Homo sapiens (Human), UniProt O15244); test: OCT2 inhibition assay (14C-TEA uptake, OCT2-transfected MDCKII cells); assay type: cell-based
OCT2, sequence (O15244 whole entry): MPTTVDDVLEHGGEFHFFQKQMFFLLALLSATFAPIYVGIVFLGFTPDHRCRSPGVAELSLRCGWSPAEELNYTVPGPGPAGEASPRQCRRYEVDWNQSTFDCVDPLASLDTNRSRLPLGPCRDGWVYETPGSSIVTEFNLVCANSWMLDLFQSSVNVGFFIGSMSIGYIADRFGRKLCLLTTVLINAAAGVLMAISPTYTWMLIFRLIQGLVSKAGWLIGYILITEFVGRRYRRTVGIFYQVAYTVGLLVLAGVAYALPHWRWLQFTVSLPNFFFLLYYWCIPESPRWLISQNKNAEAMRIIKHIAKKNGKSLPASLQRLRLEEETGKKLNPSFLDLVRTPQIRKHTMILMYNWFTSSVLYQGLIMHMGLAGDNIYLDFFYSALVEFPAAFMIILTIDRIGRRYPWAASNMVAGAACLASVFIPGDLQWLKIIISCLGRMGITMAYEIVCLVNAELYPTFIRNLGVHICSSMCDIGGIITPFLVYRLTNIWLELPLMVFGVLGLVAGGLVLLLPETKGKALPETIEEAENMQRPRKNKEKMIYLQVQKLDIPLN
Experimental: MDCKII cells were maintained in minimal essential medium (MEM) with 1% Pen/Strep, 10% fetal bovine serum, and 0.25 mg/mL hygromycin B in an incubator set at 37° C., 90% humidity and 5% CO2. 24 hours prior to assay, media containing 5 mM sodium butyrate were added to MDCKII cells in flasks, and cells were grown to 80-90% confluence. On assay day, cells were trypsinized and resuspended in Krebs-Henseleit Buffer (KHB), pH 7.4 at […]. Cells were preincubated for 15 min in assay plate before addition of test compound or substrate.
Test compounds were serially diluted in DMSO and then spiked (2 μL) into in 0.4 mL KHB buffer containing wild-type or OCT2-transfected cells and incubated for 10 minutes. Assay was initiated with the addition of 0.1 mL of 100 μM ^14C-TEA in KHB buffer (20 μM final concentration after mixing). The concentration of TEA is based on the Km. After 10 minutes of incubation, the assay mixture was quenched with addition of 0.5 mL of ice-cold 1×PBS buffer. Samples were then centrifuged at 1000 rpm for 5 min and supernatants were removed. Wash steps were repeated four times with ice-cold PBS. Finally, the cell pellets were lysed with 0.2N NaOH and let sit at room temperature for at least 30 min to ensure complete lysis. Samples were then counted on liquid scintillation counter and dpm counts were used to perform the following calculations. The % inhibition was calculated as follows: % inhibition=[1−{[OCT2]i−[WT]ni}/{[OCT2]ni−[WT]ni}]*100 where, [OCT2]i represents the dpm count in the presence of test compound for either OCT2 cells, […] of test compound for OCT2 cells and [WT]ni represents the dpm count in the absence of test compound for wild type cells, respectively.

[1] = Cytotoxicity (CC50) in MT4 cells, mock-infected; assay type: cell-based; conditions: human, mock-infected (uninfected)
Experimental: (§1) Infected and uninfected cells are diluted in cell growth medium and 35 μL of 2000 (for MT4) cells is added to each well of the assay plates. Assay plates were then incubated in a 37° C. incubator. After 5 days of incubation, 25 μL of 2× concentrated CellTiter-Glo™ Reagent (catalog # G7573, Promega Biosciences, Inc., Madison, Wis.) was added to each well of the assay plate. Cell lysis was carried out by incubating at room temperature for 2-3 minutes, and then chemiluminescence was read using the Envision reader (PerkinElmer).

HIV-IIIb = test: Antiviral assay in MT4 cells; assay type: cell-based; conditions: Human immunodeficiency virus 1, IIIB, MT4, 120 h, MT4 cells, HIV-IIIb, 5 days; read-out: EC50
Experimental: 1 mL aliquots of 2×10^6 MT4 cells are pre-infected for 1 and 3 hours respectively at 37° C. with 25 μL (MT4) or of either cell growth medium (mock-infected) or a fresh 1:250 dilution of an HIV-IIIb concentrated ABI stock (0.004 m.o.i. for MT4 cells). Infected and uninfected cells are diluted in cell growth medium and 35 μL of 2000 (for MT4) cells is added to each well of the assay plates.
as §1, with “Assay” for “Infected and uninfected cells are diluted in cell growth medium and 35 μL of 2000 (for MT4) cells is added to each well of the assay plates. Assay”

HIV-1 N155H/Q148R = assay type: cell-based; conditions: MT2 cells; mean EC50 mutant / mean EC50 wt
Experimental: (§2) For the antiviral assay utilizing MT-2 cells, 50 μL of 2× test concentration of 3-fold serially diluted compound in culture medium with 10% FBS was added to each well of a 96-well plate (9 concentrations) in triplicate. MT-2 cells were infected with wild-type or mutant variants of HIV-1 for 3 hours using a volume of viral inoculum determined to produce 90% cell killing. Fifty microliters of infected cell suspension in culture medium with 10% FBS (˜1.5×10^4 cells) was then added to each well containing 50 μL of serially diluted compound. The plates with HIV-infected cultures were then incubated at 37° C. for 5 days in the presence of the tested compounds. After 5 days of incubation, 100 μL of CellTiter-Glo™ Reagent (catalog # G7571, Promega Biosciences, Inc., Madison, Wis.) was added to each well. Cell lysis was carried out by incubating at room temperature for 10 min followed by a chemiluminescence read-out.
(§3) The chemiluminescence readout from the 10-point antiviral dose response was analyzed directly by curve fitting with equation (I) to determine the EC50.
(§4) where y=Cell Survival, M=maximum cell survival enabled by drug protection, H=baseline cell survival without drug protection, n=Hill coefficient of the antiviral dose response, m=Hill coefficient of the cytotoxicity dose response, and [I]=inhibitor concentration.
(§5) EC50 values (mean±standard deviation) were calculated from at least three independent experiments performed in triplicate. The fold-change in antiviral activity of tested compounds was calculated as a ratio of the mean EC50 for each mutant virus divided by the mean EC50 of the control WT virus.

HIV-1 G140S/Q148R = assay type: cell-based; conditions: MT2 cells; mean EC50 mutant / mean EC50 wt
Experimental: as §2, §3, §4, §5

HIV-1 E138K/Q148K = assay type: cell-based; conditions: MT2 cells; mean EC50 mutant / mean EC50 wt
Experimental: as §2, §3, §4, §5

HIV-1 E92Q/N155H = assay type: cell-based; conditions: MT2 cells; mean EC50 mutant / mean EC50 wt
Experimental: as §2, §3, §4, §5

wild-type HIV-1 = test: Antiviral assay in MT-2 cells, wild-type HIV-1; assay type: cell-based; conditions: Human immunodeficiency virus 1, 120 h; MT2 cells, wild-type HIV-1, 5 days; read-out: wt
Experimental: as §2, §3, §4, §5

[2] = Plasma protein binding (equilibrium dialysis); assay type: in vitro ADME; conditions: human, plasma (sodium EDTA) versus buffer; 2 μM in plasma vs. buffer, 24 hours at 37° C.; read-out: % Free HP/Buffer
Experimental: Plasma protein binding was determined using a HTD96b equilibrium dialyzer with a plate base, stainless steel pressure plate and Teflon bock. 9 Teflon bars, labeled sequentially from A through I, were assembled with two stainless steel connecting rods. Membranes were placed between two Teflon bars, with the membrane placed approximately 2 mm below the top edge of the bar and the lower membrane edge overlapped the bottom of all wells. The membrane was soaked for about 20 minutes in water, about 20 minutes in ethanol (30/70 v/v) and rinsed with water three times to remove the ethanol. It was soaked in PBS for at least 30 minutes. Plasma in sodium EDTA (Bioreclamation or equivalent) was used. The Plasma (not pH-adjusted) was stored at −80° C. and thawed at room temperature before use. The stock solution of the compounds tested was at 200 μM in DMSO. The quench solution used was 50 nM of an internal standard in 100% ACN. To prepare a 2 μM solution of the compound tested in plasma, 5 μL of a 200 μM stock solution was added to 495 μL of blank plasma. 100 μL plasma was added with 2 μM of test compound into one side of the well. 100 μL of buffer (for plasma vs. buffer) was added into another side of the well. The 96-well plate was covered using an adhesive sealing film and incubated for 24 hours at 37° C. under slow rotation. This procedure was replicated for each compound. 50 μL of plasma sample was put into a 96 well plate, 50 μL of buffer was added. 50 μL of buffer was put into a 96 well plate. 50 μL of plasma was added. 300 μL of quench solution was added and the plate sealed and shaken for 15 minutes. The material was centrifuged for 30 minutes at 3000 RPM and ˜250 μL was transferred into a short plate. The samples were analyzed by LC/MS. The resulting data is shown in the last row of Table 3 as “% Free” which corresponds to the percentage of compound not protein bound.

PXR (NR1I2), sequence (O75469 whole entry): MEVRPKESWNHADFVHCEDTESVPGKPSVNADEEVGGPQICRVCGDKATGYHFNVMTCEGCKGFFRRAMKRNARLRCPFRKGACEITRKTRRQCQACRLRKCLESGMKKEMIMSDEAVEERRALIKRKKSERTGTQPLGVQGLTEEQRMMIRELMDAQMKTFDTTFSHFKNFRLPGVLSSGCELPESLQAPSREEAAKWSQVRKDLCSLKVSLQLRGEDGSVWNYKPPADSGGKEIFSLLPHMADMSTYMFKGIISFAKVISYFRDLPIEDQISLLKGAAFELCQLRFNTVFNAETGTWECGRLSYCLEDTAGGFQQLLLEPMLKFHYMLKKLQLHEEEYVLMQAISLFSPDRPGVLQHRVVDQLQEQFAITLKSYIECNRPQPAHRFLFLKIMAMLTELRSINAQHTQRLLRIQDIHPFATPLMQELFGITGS

Q: For `CCN1C(=O)c2c(O)c(=O)c(C(=O)NCc3c(F)cc(F)cc3F)cn2[C@@H]2CCOC[C@H]21` [Compound 12], which inhibition at 24 h, 15 µM (PXR (NR1I2)) is on record?
A: 18%

Q: What about the IC50 (OCT2) of the same molecule?
A: 6400 nM

Q: What about the CC50 at 5 days [1] of the same molecule?
A: 36500 nM

Q: What about the EC50 (HIV-IIIb) of the same molecule?
A: 6.26 nM

Q: For `CCN1C(=O)c2c(O)c(=O)c(C(=O)NCc3c(F)cc(F)cc3F)cn2[C@H]2COC[C@H]21` [Compound 44], which inhibition at 24 h, 15 µM (PXR (NR1I2)) is on record?
A: 32%

Q: What about the CC50 at 5 days [1] of the same molecule?
A: 38000 nM

Q: What about the “Resistance fold shift N155H/Q148R vs. wild type” value (HIV-1 N155H/Q148R) of the same molecule?
A: 17.7 fold shift

Q: And the “Resistance fold shift G140S/Q148R vs. wild type” value (HIV-1 G140S/Q148R)?
A: 5.9 fold shift

Q: What about the “Resistance fold shift E138K/Q148K vs. wild type” value (HIV-1 E138K/Q148K) of the same molecule?
A: 23.8 fold shift

Q: And the “Resistance fold shift E92Q/N155H vs. wild type” value (HIV-1 E92Q/N155H)?
A: 2.3 fold shift

Q: What about the EC50 (wild-type HIV-1) of the same molecule?
A: 7.8 nM

Q: What about the fraction unbound at 24 h, 2 µM [2] of the same molecule?
A: 0.068

Q: And the EC50 (HIV-IIIb)?
A: 5.68 nM

Q: Which inhibition at 24 h, 15 µM (PXR (NR1I2)) does the source give for `CCN1C(=O)c2c(O)c(=O)c(C(=O)NCc3ccc(F)cc3F)cn2[C@H]2CCOC[C@H]21` [Compound 41] here?
A: 21%

Q: What about the CC50 at 5 days [1] of the same molecule?
A: 27400 nM

Q: What about the “Resistance fold shift N155H/Q148R vs. wild type” value (HIV-1 N155H/Q148R) of the same molecule?
A: 1.8 fold shift

Q: What about the “Resistance fold shift G140S/Q148R vs. wild type” value (HIV-1 G140S/Q148R) of the same molecule?
A: 2.9 fold shift

Q: What about the “Resistance fold shift E138K/Q148K vs. wild type” value (HIV-1 E138K/Q148K) of the same molecule?
A: 3.5 fold shift

Q: What about the “Resistance fold shift E92Q/N155H vs. wild type” value (HIV-1 E92Q/N155H) of the same molecule?
A: 2.1 fold shift

Q: What about the EC50 (wild-type HIV-1) of the same molecule?
A: 2 nM

Q: And the fraction unbound at 24 h, 2 µM [2]?
A: 0.057

Q: What about the EC50 (HIV-IIIb) of the same molecule?
A: 2.88 nM

Q: Which results are given for `O=C(NCc1c(F)cc(F)cc1F)c1cn2c(c(O)c1=O)C(=O)N(CC(F)(F)F)[C@H]1COCC[C@H]12` [Compound 31]?
A: inhibition at 24 h, 15 µM (PXR (NR1I2)): 1%; IC50 (OCT2): 10000 nM; CC50 at 5 days [1]: 52500 nM; EC50 (HIV-IIIb): 2.62 nM

Q: Which results are given for `CCN1C(=O)c2c(O)c(=O)c(C(=O)NCc3c(F)cc(F)cc3F)cn2[C@H]2CCOC[C@H]21` [Compound 33]?
A: inhibition at 24 h, 15 µM (PXR (NR1I2)): 12%; CC50 at 5 days [1]: 31100 nM; Resistance fold shift N155H/Q148R vs. wild type (HIV-1 N155H/Q148R): 2.2 fold shift; Resistance fold shift G140S/Q148R vs. wild type (HIV-1 G140S/Q148R): 2.5 fold shift; Resistance fold shift E138K/Q148K vs. wild type (HIV-1 E138K/Q148K): 5.9 fold shift; Resistance fold shift E92Q/N155H vs. wild type (HIV-1 E92Q/N155H): 0.9 fold shift; EC50 (wild-type HIV-1): 2.5 nM; fraction unbound at 24 h, 2 µM [2]: 0.056; EC50 (HIV-IIIb): 2.84 nM

Source: patent US9795602B2, “Polycyclic-carbamoylpyridone compounds and their pharmaceutical use” (Gilead Sciences, Inc., priority 2014, dated 2017)
